Data reported in US9896445B2, “Heterocyclic inhibitors of ERK1 and ERK2 and their use in the treatment of cancer” (Asana Biosciences, LLC, priority 2015, dated 2018).

How the values were obtained:
Format in all cases: cell-based, human
[1] = test system: HT-29 (colorectal carcinoma, B-RafV600E) cells; assay: Cell proliferation (Alamar Blue) assay, HT-29; conditions: HT29 cells
Experimental: (§1) Cell Proliferation (Alamar Blue) Assay
(§2) HT-29 (colorectal carcinoma, B-RafV600E), HCT116 (colorectal carcinoma, K Ras G13D), A375 (melanoma, B-RafV600E) and SK-Mel2 (melanoma, NRAS Q61R) cells (obtained from ATCC, USA) were seeded (5000 cells/well) in 96-well tissue culture plate and incubated at 37° C./5% CO2 for 16-24 hours. The cells were then treated with compounds, at concentrations typically from 0.0005 to 10 uM prepared in 3-fold serial dilutions. The plates were then incubated for 72 h at 37° C./5% CO2 in a moist environment. Then Alamar Blue™ reagent (final concentration 1×) was added to each well and incubated for 1-3 h at 37° C./5% CO2. The plates were read on fluorescence reader at 540 nm excitation and 590 nm emission wavelengths. The IC50 values were subsequently determined using a sigmoidal dose-response curve (variable slope) using GraphPad Prism® 5 software.

[2] = test system: HCT116 (colorectal carcinoma, K Ras G13D) cells; assay: Cell proliferation (Alamar Blue) assay, HCT116; conditions: HCT116 cells
Experimental: as §1, §2

[3] = test system: phospho-RSK1(S380); assay: Phospho-RSK1(S380) ELISA assay in HT-29 cells; conditions: HT29 cells; read-out: Mechanist Cell Assay RSK1 Phos HT29 IC50
Experimental: Phospho-RSK1(S380) ELISA Assay
HT-29 cells (colorectal carcinoma, B-RafV600E); obtained from ATCC, USA) were seeded (60,000 cells/well) in a 96-well plate and incubated at 37° C./5% CO2 overnight and then treated with desired compound dilutions for 2 h. Medium was removed and cells were rinsed once with ice-cold 1×PBS, then 0.070 mL ice-cold 1× cell lysis buffer containing 1 mM PMSF was added to each well and the plate was incubated on a shaker for 2 h and 30 min at 4° C. The plate was then centrifuged for 20 min (×4000 rpm) at 4° C. and the supernatant was transferred to a new plate. Cell lysates were diluted with sample diluent at a ratio of 1:1. The ELISA was then carried out following the manufacturer's protocol (PathScan® phospho-RSK1(Ser380) Sandwich ELISA Kit, Cell Signaling Technologies). The plate was read at 450 nm within 30 min after adding STOP solution. The IC50 values were subsequently determined using a sigmoidal dose-response curve (variable slope) in GraphPad Prism® 5 software.

Measured: IC50

Cc1cnc(NC2CCOCC2)nc1-n1cnc(C(=O)NC(CN)c2cc(F)cc(Cl)c2)c1 (stereo not drawn) [Compound 236, N-(2-amino-1-(3-chloro-5-fluoro-phenyl)ethyl)-1-(5-methyl-2-((tetrahydro-2H-pyran-4-yl)amino)-pyrimidin-4-yl)-1H-imidazole-4-carboxamide]
≤ 100 nM: all assays above
